Columns and labels:
[1] = target: T1, human AR (Homo sapiens, UniProt P10275); assay: AR whole cell competitive binding assay (3H-DHT), COS-1 cells
T1 sequence (P10275 1-920): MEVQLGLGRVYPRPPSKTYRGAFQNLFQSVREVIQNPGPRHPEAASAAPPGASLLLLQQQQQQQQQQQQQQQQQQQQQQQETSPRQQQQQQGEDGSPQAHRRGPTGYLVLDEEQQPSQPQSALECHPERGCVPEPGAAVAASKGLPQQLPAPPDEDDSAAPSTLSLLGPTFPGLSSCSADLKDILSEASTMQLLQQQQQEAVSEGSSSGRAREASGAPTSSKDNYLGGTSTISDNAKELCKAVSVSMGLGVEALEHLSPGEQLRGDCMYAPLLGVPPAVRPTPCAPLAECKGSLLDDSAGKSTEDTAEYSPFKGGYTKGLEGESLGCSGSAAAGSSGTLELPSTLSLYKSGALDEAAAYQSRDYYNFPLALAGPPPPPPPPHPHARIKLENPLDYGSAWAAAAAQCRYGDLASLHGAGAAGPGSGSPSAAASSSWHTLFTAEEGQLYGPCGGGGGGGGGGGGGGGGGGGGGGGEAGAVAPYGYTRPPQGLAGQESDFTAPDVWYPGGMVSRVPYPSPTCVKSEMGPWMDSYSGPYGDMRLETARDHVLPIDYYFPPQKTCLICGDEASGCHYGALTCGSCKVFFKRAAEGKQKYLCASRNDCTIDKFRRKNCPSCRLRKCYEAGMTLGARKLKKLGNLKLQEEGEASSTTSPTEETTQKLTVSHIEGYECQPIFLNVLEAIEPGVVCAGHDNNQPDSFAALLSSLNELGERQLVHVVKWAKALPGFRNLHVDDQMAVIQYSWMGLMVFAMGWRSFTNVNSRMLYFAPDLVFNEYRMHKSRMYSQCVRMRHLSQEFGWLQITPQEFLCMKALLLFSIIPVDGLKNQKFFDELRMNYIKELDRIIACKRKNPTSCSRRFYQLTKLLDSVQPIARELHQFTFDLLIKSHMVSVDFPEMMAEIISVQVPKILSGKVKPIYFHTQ
Experimental: AR Binding: For the whole cell binding assay, COS-1 cells in 96-well microtiter plates containing DMEM-10% FBS were transfected as described above with the following plasmid DNA: pRShAR (2 ng/well), pRS-β-Gal (50 ng/well) and pGEM (48 ng/well). Six hours after transfection, media was removed, the cells were washed with PBS and fresh media was added. The next day, the media was changed to DMEM-serum free to remove any endogenous ligand that might be complexed with the receptor in the cells.
Three replicates were used for each sample. […] The remaining media was removed, the cells were washed three times with PBS to remove unbound ligand, and cells were lysed with a Triton X-100-based buffer.
For the saturation analyses, the difference between the total binding and the nonspecific binding, normalized by the β-Gal rate, was defined as specific binding.
After correcting for non-specific binding, IC50 values were determined. […] The IC50 value was determined graphically from a log-logit plot of the data. The Ki values were determined by application of the Cheng-Prusoff equivuation to the IC50 values, the labeled ligand concentration and the Kd of the labeled ligand.

[2] = target: T1, human AR; assay: Co-transfection assay, AR antagonist, CV-1 cells (in presence of DHT); assay type: cell-based; conditions: for AR Antagonist CV-1 Cells Efficacy (%): percent maximal inhibition, DHT at EC50
Text: (§1) The reporter plasmid, MTV-LUC, contains the cDNA for firefly luciferase (LUC) under control of themouse mammary tumor virus (MTV) long terminal repeat, a conditional promoter containing an androgen response element. See e.g., Berger et al. supra. In addition, pRS-β-Gal, coding for constitutive expression of E. coli β-galactosidase (β-Gal), was included as an internal control for evaluation of transfection efficiency and compound toxicity.
(§2) Three to four replicates were used for each sample.
(§3) After 40 hours, the cells were washed with PBS, lysed with a Triton X-100-based buffer and assayed for LUC and β-Gal activities using a luminometer or spectrophotometer, respectively. For each replicate, the normalized response (NR) was calculated as:
(§4) where β-Gal rate=β-Ga·1×10^−5/β-Gal incubation time.

[3] = target: T1, human AR; assay: Co-transfection assay, AR agonist, CV-1 cells; assay type: cell-based; conditions: for AR Agonist CV-1 Cells Efficacy (%): percent maximal response relative to reference agonist DHT
Text: as §1, §2, §3, §4

[4] = target: T2, ER (Homo sapiens, UniProt P03372); assay: Co-transfection assay, ER antagonist; assay type: cell-based; conditions: Table 2; read-out: ER Potency Antag
T2 construct: expressed in transfected cells; host or cells: CV-1 cells (inferred: the only cells described for the co-transfection assay)
T2 sequence (P03372 1-595): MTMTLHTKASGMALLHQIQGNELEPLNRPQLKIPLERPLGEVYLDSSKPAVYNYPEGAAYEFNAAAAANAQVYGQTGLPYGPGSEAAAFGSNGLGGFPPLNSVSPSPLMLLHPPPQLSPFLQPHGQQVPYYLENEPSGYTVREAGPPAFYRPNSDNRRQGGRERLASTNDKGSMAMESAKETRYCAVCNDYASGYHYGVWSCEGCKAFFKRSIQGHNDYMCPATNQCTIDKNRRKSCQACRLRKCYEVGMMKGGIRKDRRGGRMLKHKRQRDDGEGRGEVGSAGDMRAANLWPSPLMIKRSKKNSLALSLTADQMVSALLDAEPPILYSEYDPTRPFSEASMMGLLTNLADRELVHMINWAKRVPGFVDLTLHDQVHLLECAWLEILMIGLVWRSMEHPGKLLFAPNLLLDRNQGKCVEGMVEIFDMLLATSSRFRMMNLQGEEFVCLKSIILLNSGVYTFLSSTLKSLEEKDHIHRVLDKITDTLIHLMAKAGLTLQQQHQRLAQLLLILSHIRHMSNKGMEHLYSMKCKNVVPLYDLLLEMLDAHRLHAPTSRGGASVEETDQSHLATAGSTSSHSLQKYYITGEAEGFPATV

[5] = target: T2, ER; assay: Co-transfection assay, ER agonist; assay type: cell-based; conditions: Table 2; read-out: ER Potency Agon

## CCC1CCNc2cc3nc(SC)cc(C(F)(F)F)c3cc21 (racemic) [Compound 142, (R/S)-4-Ethyl-1,2,3,4-tetrahydro-8-methylthio-6-trifluoromethyl-9-pyrido[3,2-g]quinoline]
[1]
  Ki: 307 nM
[2]
  IC50: 131 ± 64 nM
  AR Antagonist CV-1 Cells Efficacy (%): 60 ± 7%
[3]
  EC50: 221 ± 108 nM
  AR Agonist CV-1 Cells Efficacy (%): 30 ± 12%

## CCC1CCNc2cc3nc([S+](C)[O-])cc(C(F)(F)F)c3cc21 (racemic) [Compound 143, (R/S)-4-Ethyl-1,2,3,4-tetrahydro-8-methylsulfinyl-6-trifluoromethyl-9-pyrido[3.2-g]guinoline]
[1]
  Ki: 34 nM
[2]
  IC50: 4690 nM
  AR Antagonist CV-1 Cells Efficacy (%): 59%
[3]
  EC50: 33 ± 3 nM
  AR Agonist CV-1 Cells Efficacy (%): 37 ± 9%

## Cc1c2c(cc3c(C(F)(F)F)c(F)c(Cl)nc13)C(C)CC(C)(C)N2 (stereo not shown) [Compound 106, 8-Chloro-7-fluoro-1,2,3,4-tetrahydro-2,2,4,10-tetramethyl-6-trifluoro-methyl-9-pyrido[3,2-g]quinoline]
[1]
  Ki: > 1000 nM
[2]
  IC50: 550 ± 15 nM
  AR Antagonist CV-1 Cells Efficacy (%): 77 ± 6%
[3]
  AR Agonist CV-1 Cells Efficacy (%): 4 ± 2%

## CC1(C)CCc2cc3c(C(F)(F)F)c(F)c(Cl)nc3cc2N1 [Compound 107, 8-Chloro-7-fluoro-1,2,3,4-tetrahydro-2,2-dimethyl-6-trifluoromethyl-9-pyrido[3,2-g]quinoline]
[1]
  Ki: 103 nM
[2]
  IC50: 17 ± 3 nM
  AR Antagonist CV-1 Cells Efficacy (%): 61 ± 8%
[3]
  EC50: 1040 nM
  AR Agonist CV-1 Cells Efficacy (%): 29%

## CC1(C)CCc2cc3c(C(F)(F)F)c(F)c(F)nc3cc2N1 [Compound 113, 7,8-Difluoro-1,2,3,4-tetrahydro-2,2-dimethyl-6-trifluoromethyl-9-pyrido[3,2-g]quinoline]
[1]
  Ki: 152 nM
[2]
  IC50: 500 nM
  AR Antagonist CV-1 Cells Efficacy (%): 37%
[3]
  AR Agonist CV-1 Cells Efficacy (%): 12%

## Cc1c2c(cc3c(C(F)(F)F)c(F)c(F)nc13)C(C)CC(C)(C)N2 (stereo not shown) [Compound 115, 7,8-Difluoro-1,2,3,4-tetrahydro-2,2,4,10-tetramethyl-6-trifluoromethyl-9-pyrido[3,2-g]quinoline]
[1]
  Ki: > 1000 nM
[2]
  IC50: 1140 nM
  AR Antagonist CV-1 Cells Efficacy (%): 26%
[3]
  AR Agonist CV-1 Cells Efficacy (%): 0%

## CC1(C)CCc2cc3c(C(F)(F)F)c(F)c(Br)nc3cc2N1 [Compound 119, 8-Bromo-7-fluoro-1,2,3,4-tetrahydro-2,2-dimethyl-6-trifluoromethyl-9-pyrido[3,2-g]quinoline]
[1]
  Ki: 91 ± 68 nM
[2]
  IC50: 47 ± 27 nM
  AR Antagonist CV-1 Cells Efficacy (%): 73 ± 7%
[3]
  AR Agonist CV-1 Cells Efficacy (%): 6%

## CC1(C)CCc2cc3c(C(F)(F)F)c(F)cnc3cc2N1 [Compound 126, 7-Fluoro-1,2,3,4-tetrahydro-2,2-dimethyl-6-trifluoromethyl-9-pyrido[3,2-g]quinoline]
[1]
  Ki: 58 nM
[2]
  IC50: 181 ± 73 nM
  AR Antagonist CV-1 Cells Efficacy (%): 93 ± 4%
[3]
  AR Agonist CV-1 Cells Efficacy (%): 3 ± 5%

## CC(C)(O)C(=O)Nc1ccc([N+](=O)[O-])c(C(F)(F)F)c1 [Flut]
[4]
  IC50: > 10000 nM
[5]
  EC50: > 10000 nM

— US6667313B1, “8-substituted-6-triflouromethyl-9-pyrido [3,2-G] quinoline compounds as androgen receptor modulators” (Ligand Pharmaceuticals Inc., priority 1999, dated 2003)
